We go through one substance from patent US20070111952A1, “Glycosylated triketide delta lactones” (priority 2003, published 2007).

The subject of data set [1] is A. azollae vegetative cells. In words: Stability of the akinete-inducing activity (autoclaving, long storage). The arrangement: species or system Anabaena azollae. Here is the method: Extract of Nephrotoma cornicina (Linnaeus, 1758) (Tipulidae, Diptera) contains a glycosylated triketide lactone, here named cornicinine. The compound according to the invention is present in the head, thorax, abdomen, legs and wings of the insect, from both sexes.
An Azolla shoot apex +/−3 mm long was excised and placed in a 2 ml Eppendorf tube filled with modified, N-free Hoagland solution to which was added the material to be tested. The culture was performed at 26° C. under constant light intensity of 110 μM. m^−2.sec^−1 and with daily adjustment of the liquid level with distilled water to compensate evapotranspiration. Activity was indicated by progressive chlorosis of Azolla, which appears after 5 days. Akinete differentiation can alternatively be followed by observation of leaf squashes under a light microscope, with first symptoms appearing after 48 hours of treatment.

Data set [2] deals with A. azollae vegetative cells. In words: Azolla shoot apex bioassay: akinete differentiation of A. azollae / chlorosis of Azolla. It counts as cell-based, Anabaena azollae. Here is the method: Approximately 10 000 dried N. cornicina (36 g) were ground, suspended in 750 ml H2O, treated 60′ in a 100° C. water bath and centrifuged (14 000×g, 60′). The residue was re-suspended in 300 ml H2O, shacked 15′ and centrifuged (14 000×g, 60′). The two supernatants were grouped, filtered on Macherey-Nagel MN 615 paper and lyophilized. The dry residue (7 g) was suspended in 8 ml H2O, vortexed and centrifuged (7 800×g, 30′). Six ml of supernatant were filtered on acrodiscs 0.22 μm in four 1.5 ml batches, each filtrate being chromatographed on a 500 ml, 2.5 cm diameter Sephadex G 10 column (eluent: water; 3′/fraction, around 6 ml/fraction) The residue was suspended in 2 ml H2O, vortexed and centrifuged (7 800×g, 30′). Two ml of supernatant were filtered and chromatographed as above. This last procedure was repeated twice. Absorbance of each fraction was measured at 254 nm and bioassays were performed on 50 μl of each fraction from the seven chromatograms.
Azolla is a small aquatic fern, which multiplies, most often vegetatively, at the surface of still water bodies, where it can form dense floating carpets. Anabaena azollae is the only known diazotrophic symbiont associated to a pteridophyte, Azolla and the only one linked to a plant throughout its life cycle. […]

With cornicinine, the stability entry in data set [1] is recorded as “stable”. Further, the “concentration able to induce the differentiation of all the vegetative cells of A. azollae into akinetes” value in data set [2] (all vegetative cells into akinetes) was “nanomolar concentrations”. For the same substance, the “activity on Azolla species” value in data set [2] (the seven generally recognised Azolla species) is listed as “active”.
